Results as given in patent US20240122848A1, “APPETITE SUPPRESSANT” (priority 2017, published 2024).
Structures can show the parent of a compound that is named as a salt.

What was measured:
[1] = cited from earlier work; for Average weight loss/one year: vs. 3% placebo
[2] = Dissolution / solubility observations of ingredients

Molecule | patients with 5% weight loss/12 weeks [1] [% patients] | patients with 10% weight loss/12 weeks [1] [% patients] | Average weight loss/one year [1] [%] | other results
CNCCC(Oc1ccc(C(F)(F)F)cc1)c1ccccc1 (stereo not shown) [PROZAC, Fluoxetine] | – | – | – | evidence of weight loss ([1]; in vivo): No evidence of weight loss
CCN(CC)C(C)C(=O)c1ccccc1 (stereo not shown) [TENUATE, Diethylpropion] | 80 | 50 | 10 | –
CC1(C)O[C@@H]2[C@@H](CO[C@@]3(COS(N)(=O)=O)OC(C)(C)O[C@@H]23)O1 [TOPAMAX, Topiramate] | – | – | – | efficacy (vs. placebo) ([1]; in vivo): Minimal, if any efficacy
CN[C@H]1CC[C@@H](c2ccc(Cl)c(Cl)c2)c2ccccc21 [ZOLOFT, Sertraline] | – | – | – | evidence of weight loss ([1]; in vivo): No evidence of weight loss
CCCCCCCCCCC[C@@H](C[C@@H]1OC(=O)[C@H]1CCCCCC)OC(=O)[C@H](CC(C)C)NC=O [XENICAL, Orlistat] | – | – | – | weight loss (vs. placebo)/6 months ([1]; 6 months): 5%
C[C@H]1CNCCc2ccc(Cl)cc21 [BELVIQ, Lorcaserin] | – | – | – | weight loss/year vs. placebo ([1]; per year): 3-5%
C[C@H]1[C@H](c2ccccc2)OCCN1C [BONTRIL, Phendimetrazine] | 80 | 50 | 10 | –
Glycerol ester of hydrogenated rosin [GEHR] | – | – | – | solubility in aqueous solutions [2]: poorly soluble
CN1CCCC(n2nc(Cc3ccc(Cl)cc3)c3ccccc3c2=O)CC1 (stereo not shown) [Azelastine hydrochloride, Azelastine Hydrochloride] | – | – | – | time to dissolve in purified water with stirring ([2]; added as second ingredient after Purified Water): approximately 5 minutes
C[C@@H](Cc1ccccc1)N(C)Cc1ccccc1 [DIDREX, Benzphetamine] | 80 | 50 | 10 | –
CC(C)(N)Cc1ccccc1 [ADIPEX, Phentermine] | 80 | 50 | 10 | –
C[C@H]1[C@H](c2ccccc2)OCCN1C.O=C(O)C(O)C(O)C(=O)O [ADIPOST] | 80 | 50 | 10 | –
